Experimental data: PubChem BioAssay AID2060886 (Molecular Pharmacology Branch, DTP, NCI, 2025)
Several values for one entry are separate records, joined by “and”; a condition that tells them apart may be missing. Equal entries are not always repeated.

Tested on: 653999-131-R-J2-PDC complex spheroids, growth inhibition
Assay: Anticancer human tumor 653999-131-R-J2-PDC patient-derived lung adenocarcinoma cell line growth inhibition [RAS]
Conditions: for viability, T/C: stronger effect = lower value
Source text: RAS pathway inhibitors in Combinations in Complex Spheroids
A high-throughput screen of multi-cell type tumor spheroids was designed to identify active combinations of RAS pathway inhibitors and targeted small molecules. Complex spheroids include a stromal component modeled by human endothelial cells (HUVEC) and fibroblasts modeled by human mesenchymal stem cells (MSCs). The concentration ranges selected for each drug and investigational agent were based upon clinically achievable concentrations if the clinical Cmax of the agent was known.
Compounds. The drugs and investigational agents: abemaciclib (NSC768073), cobimetinib (NSC768068), divarasib (GDC6063, NSC841802), docetaxel (NSC628503), GDC-1971 (RLY-1971, NSC841576), gemcitabine (NSC613327), inavolisib (NSC800729), ipatasertib (NSC767898), KB-0742 (NSC834161), MRTX-1133 (NSC836407), osimertinib (NSC779217), RMC-4630 (NSC839698), RMC-6236 (NSC851965), RMC-6291 (NSC852671), Ro-3306 (NSC812927), sapanisertib (NSC764658), SN-38 (NSC673596), staurosporine (NSC755774), SY5609 (NSC837396), and tovorafenib (DAY101, NSC766906), were obtained from the National Cancer Institute (NCI) Developmental Therapeutics Program Chemical Repository. The FDA-approved anticancer drug set is available from the NCI Developmental Therapeutics Program. […] The stock solutions were prepared in dimethyl sulfoxide (DMSO, Sigma-Aldrich, St. Louis, MO, cat. D2650) at 800-fold the tested concentration and stored at -70 degrees C prior to their use. All drugs and investigational agents were tested over a range starting from a high concentration at or near the clinical Cmax and decreasing in half-log increments. If the clinical Cmax for an agent had not been determined, the highest concentration tested was 10 microM.
Cell Culture. All cells were maintained in an incubator at 37 degrees C and 5% CO2 with 95% humidity. The PDC lines were cultured according to standard operating procedures established by the NCI PDMR. All PDCs were thawed and cultured in Matrigel-coated flasks prepared with a working solution of 1X Ham's F-12 nutrient mix, without supplementation (Invitrogen, Waltham, MA, cat. 11765054), 100 U/mL penicillin-streptomycin (Invitrogen, cat. 15140122), and 2.5% Matrigel (Corning Inc., Corning, NY, cat. 354248) for the first three passages. The 362531-283-R-J2-PDC and 782815-120-R-J1-PDC lines were cultured in 6C/Colon 1B media, which includes advanced DMEM/F-12 (Thermo Fisher Scientific, cat. 12634028), 10 mM HEPES (Thermo Fisher Scientific, cat. 15630080), 1X GlutaMAX supplement (Thermo Fisher Scientific, cat. 35050061), 0.1 mg/mL primocin (InvivoGen, San Diego, CA, cat. ant-pm-2), 10% defined fetal bovine serum, heat inactivated (HyClone Laboratories Inc., Logan, UT, cat. SH30070.03HI), 50% L-WRN conditioned media (ATCC, cat. CRL-3276), 1.25 mM N-Acetyl-L-cysteine (Sigma-Aldrich, cat. A9165), 10 mM nicotinamide (Sigma-Aldrich, cat. N0636), 1X B-27 supplement (Thermo Fisher Scientific, cat. 17504044), 1X N-2 supplement (Thermo Fisher Scientific, cat. 17502048), 50 ng/mL human EGF (Thermo Fisher Scientific, cat. PHG0311), and 10 microM Y-27632 dihydrochloride (Tocris Bioscience, cat. 1254). The K12877-001-R-J1-PDC line was cultured in 6I media, which includes all 6C/Colon 1B media plus 10 ng/mL human FGF-10 (PeproTech, cat. 100-26), 1 ng/mL human FGF-2 (PeproTech, cat. 100-18B), 1 µM prostaglandin E2 (Tocris Bioscience, cat. 2296), […] hydrocortisone (Sigma-Aldrich, cat. H4001), and […] bovine insulin (Sigma-Aldrich, cat. I6634). The K86415-001-R-J1-PDC line was cultured in 6D media, which includes all 6C/Colon 1B media components minus the L-WRN conditioned media. The 485176-168-R4-J1-PDC was cultured in PANC media, which includes all 6C/Colon 1B media plus 100 ng/mL human FGF-10 (PeproTech, cat. 100-26), 500 nM SB-431542 (Selleckchem, cat. S1067), and 10 nM gastrin (Tocris Bioscience, cat. 3006). […]

[1] = curve of first compound, second compound 0.0316 µM
[2] = curve of first compound, second compound 0.1 µM
[3] = curve of first compound, second compound 0.316 µM
[4] = curve of first compound, second compound 1 µM
[5] = second compound 0.0316 µM, first compound 0.0316 µM
[6] = second compound 0.0316 µM, first compound 0.1 µM
[7] = second compound 0.0316 µM, first compound 0.316 µM
[8] = second compound 0.0316 µM, first compound 1 µM
[9] = second compound 0.0316 µM, first compound 3.16 µM
[10] = second compound 0.0316 µM, first compound 10 µM
[11] = second compound 0.1 µM, first compound 0.0316 µM
[12] = second compound 0.1 µM, first compound 0.1 µM
[13] = second compound 0.1 µM, first compound 0.316 µM
[14] = second compound 0.1 µM, first compound 1 µM
[15] = second compound 0.1 µM, first compound 3.16 µM
[16] = second compound 0.1 µM, first compound 10 µM
[17] = second compound 0.316 µM, first compound 0.0316 µM
[18] = second compound 0.316 µM, first compound 0.1 µM
[19] = second compound 0.316 µM, first compound 0.316 µM
[20] = second compound 0.316 µM, first compound 1 µM
[21] = second compound 0.316 µM, first compound 3.16 µM
[22] = second compound 0.316 µM, first compound 10 µM
[23] = second compound 1 µM, first compound 0.0316 µM
[24] = second compound 1 µM, first compound 0.1 µM
[25] = second compound 1 µM, first compound 0.316 µM
[26] = second compound 1 µM, first compound 1 µM
[27] = second compound 1 µM, first compound 3.16 µM
[28] = second compound 1 µM, first compound 10 µM
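Further: spheroids exposed to the agents for seven days before the readout.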

For CC(=O)OC12COC1CC(O)C1(C)C(=O)C(O)C3=C(C)C(OC(=O)C(O)C(NC(=O)OC(C)(C)C)c4ccccc4)CC(O)(C(OC(=O)c4ccccc4)C21)C3(C)C (stereo unspecified) + C#Cc1c(F)ccc2cc(O)cc(-c3ncc4c(N5CC6CCC(C5)N6)nc(OCC56CCCN5CC(F)C6)nc4c3F)c12, the IC50 [1] was 0.0316 µM, the IC50 [2] was < 0.0316 µM and the IC50 [3] was < 0.0316 µM. The IC50 [4] was < 0.0316 µM, the IC50 (curve of first compound, second compound 3.16 µM) was < 0.0316 µM and the IC50 (curve of first compound, second compound 10 µM) was < 0.0316 µM. The viability, T/C [5] was 51%, the viability, T/C [6] was 58% and the viability, T/C [7] was 47.7%. It also gave a viability, T/C [8] of 65.3%, a viability, T/C [9] of 71.5% and a viability, T/C [10] of 59.4%. It also gave a viability, T/C [11] of 50%, a viability, T/C [12] of 47% and a viability, T/C [13] of 50.4%. For the same molecule, the viability, T/C [14] was 55.7%, the viability, T/C [15] was 57% and the viability, T/C [16] was 55.5%. The viability, T/C [17] was 43.4%, the viability, T/C [18] was 41.3% and the viability, T/C [19] was 42.5%. The viability, T/C [20] was 50.1%, the viability, T/C [21] was 47.4% and the viability, T/C [22] was 42.6%. For the same molecule, the viability, T/C [23] was 25.7%, the viability, T/C [24] was 31.1% and the viability, T/C [25] was 32.2%. The viability, T/C [26] was 31.9%, the viability, T/C [27] was 28.8% and the viability, T/C [28] was 31%. For the same molecule, the viability, T/C (second compound 3.16 µM, first compound 0.0316 µM) was 19.6%, the viability, T/C (second compound 3.16 µM, first compound 0.1 µM) was 19.2% and the viability, T/C (second compound 3.16 µM, first compound 0.316 µM) was 15.8%. The viability, T/C (second compound 3.16 µM, first compound 1 µM) was 16.2%, the viability, T/C (second compound 3.16 µM, first compound 3.16 µM) was 24.1% and the viability, T/C (second compound 3.16 µM, first compound 10 µM) was 18.5%. The viability, T/C (second compound 10 µM, first compound 0.0316 µM) was 12.6%, the viability, T/C (second compound 10 µM, first compound 0.1 µM) was 11.7% and the viability, T/C (second compound 10 µM, first compound 0.316 µM) was 12.4%. The viability, T/C (second compound 10 µM, first compound 1 µM) was 13.5%, the viability, T/C (second compound 10 µM, first compound 3.16 µM) was 17.4% and the viability, T/C (second compound 10 µM, first compound 10 µM) was 13.3%.

In the case of C[C@@H](NC(=O)c1ncnc(N)c1Cl)c1ncc(C(=O)Nc2cc(C(F)(F)F)c(Cl)cn2)s1, the viability, T/C (compound 0.0316 µM) is reported as 110% and 94.1% and 103%, the viability, T/C (compound 0.1 µM) is reported as 99.2% and 120% and 108% and the viability, T/C (compound 0.316 µM) is reported as 93.9% and 101% and 114%. The viability, T/C (compound 1 µM) was 91.1% and 102% and 105%, the viability, T/C (compound 3.16 µM) was 98.3% and 99.8% and 102% and the viability, T/C (compound 10 µM) was 68.6% and 79% and 75.5%. The IC50 (curve of compound) was > 10 µM.

In the case of CC1(O)CCCC1n1c(=O)c(C(F)F)cc2cnc(NC3CCN(S(C)(=O)=O)CC3)nc21 (stereo unspecified) + C=CC(=O)N1CCN(c2nc(OCC3CCCN3C)nc3c(F)c(-c4nc(N)cc(C)c4C(F)(F)F)c(Cl)cc23)C(C)C1, the IC50 (curve of first compound, second compound 0.00316 µM) is reported as 5.56 µM, the IC50 (curve of first compound, second compound 0.01 µM) is reported as 5.34 µM and the IC50 [1] is reported as 5.2 µM. For the same molecule, the IC50 [2] was 5.59 µM, the IC50 [3] was 5.13 µM and the IC50 [4] was 6.26 µM. It also gave a viability, T/C (second compound 0.00316 µM, first compound 0.0316 µM) of 74.3%, a viability, T/C (second compound 0.00316 µM, first compound 0.1 µM) of 63.4% and a viability, T/C (second compound 0.00316 µM, first compound 0.316 µM) of 57.5%. It also gave a viability, T/C (second compound 0.00316 µM, first compound 1 µM) of 63.5%, a viability, T/C (second compound 0.00316 µM, first compound 3.16 µM) of 75.9% and a viability, T/C (second compound 0.00316 µM, first compound 10 µM) of 32.5%. It also gave a viability, T/C (second compound 0.01 µM, first compound 0.0316 µM) of 82.5%, a viability, T/C (second compound 0.01 µM, first compound 0.1 µM) of 65.5% and a viability, T/C (second compound 0.01 µM, first compound 0.316 µM) of 56.6%. For the same molecule, the viability, T/C (second compound 0.01 µM, first compound 1 µM) was 71.9%, the viability, T/C (second compound 0.01 µM, first compound 3.16 µM) was 68.8% and the viability, T/C (second compound 0.01 µM, first compound 10 µM) was 27.5%. The viability, T/C [5] was 77.6%, the viability, T/C [6] was 57.2% and the viability, T/C [7] was 63.4%. It also gave a viability, T/C [8] of 63.2%, a viability, T/C [9] of 68.5% and a viability, T/C [10] of 29%. It also gave a viability, T/C [11] of 78.4%, a viability, T/C [12] of 71.7% and a viability, T/C [13] of 54.4%. For the same molecule, the viability, T/C [14] was 64.7%, the viability, T/C [15] was 76.3% and the viability, T/C [16] was 30.7%. For the same molecule, the viability, T/C [17] was 86.3%, the viability, T/C [18] was 65.6% and the viability, T/C [19] was 67.2%. For the same molecule, the viability, T/C [20] was 69.5%, the viability, T/C [21] was 66.4% and the viability, T/C [22] was 27.8%. It also gave a viability, T/C [23] of 78.3%, a viability, T/C [24] of 55.9% and a viability, T/C [25] of 71%. It also gave a viability, T/C [26] of 64.2%, a viability, T/C [27] of 68.4% and a viability, T/C [28] of 38.2%.
